Source: patent US7115651B2, “Macrocycles and uses thereof” (Sloan-Kettering Institute for Cancer Research, priority 2000, dated 2006)

Assays:
[1] = tested on: breast cancer cell with wild type Rb; test: inhibition of breast cancer cells with wild type Rb; assay type: cell-based, human; conditions: FIG. 20
Procedure: (§1) The human cancer cell lines MCF7, BT474 and N417 were obtained from the American Type Culture Collection (Manassas, Va., USA) and maintained in a 1:1 mixture of DME:F12 supplemented with 2 mM glutamine, 50 U/mL penicillin, 50 U/mL streptomycin and 5% heat inactivated fetal bovie serum (Gemini Bioproducts) and incubated at 37° C. in 5% CO2.
(§2) Growth assays were performed by seeding 10000 cells (MCF7, BT474 or N417) per well in 6-well dishes and incubating for 24 h before drug treatment. Drugs or vehicle were administered as outlined for each experiment, and cells were incubated for the time periods depcited and then the number quantified by a Coulter counter.

[2] = tested on: small cell lung cancer cell line with defective Rb function; test: inhibition of small cell lung cancer cells with defective Rb function; assay type: cell-based, human; conditions: for inhibition of small cell lung cancer cell line with defective Rb function / potency compared with 17-AGG in small cell lung cancer cell line with defective Rb function: FIG. 20
Procedure: as §1, §2

HER2 = test: reduction of HER2 in MCF7 and BT474 cells (protein assay, anti-Her2 blot); assay type: cell-based, human; conditions: 0.5 μM through 5 μM
Procedure: The human cancer cell lines MCF7, BT474 and […] were obtained from the American Type Culture Collection (Manassas, Va., USA) and maintained in a 1:1 mixture of DME:F12 supplemented with 2 mM glutamine, 50 U/mL penicillin, 50 […] and 5% heat inactivated fetal bovie serum (Gemini Bioproducts) and incubated at 37° C. in 5% CO2. Cells were grown to 60-70% confluence and exposed to drugs or DMSO vehicle for the indicated time periods. Lysates were prepared using 5 mM Tris pH 7.4, 2% SDS and 10% glycerol lysis buffer. Protein concentration was determined using the BCA kit (Pierce Chemical Co.) according to the manufacturer's instructions. Clarified protein lysates (20-50 μg) were electrophoretically resolved on denaturing SDS-PAGE, transferred to ntirocellulose and probed with the following primary antibodies: anti-Her2 (C-18).

[3] = tested on: MCF7 cells (HER2 overexpressed, Rb positive); test: growth of MCF7 cells treated with radicicol and analogues; assay type: cell-based, human
Procedure: as §1, §2

HSP90 = test: binding of aigialomycin D to HSP90; conditions: compared with radicicol
P. falciparum = conditions: against P. falciparum; Isaka et al. 2002; cited from earlier work
KB cells = conditions: against KB cells; Isaka et al. 2002; cited from earlier work
Rb negative cells = test: cell cycle effect in Rb negative cells; assay type: cell-based
Procedure: (§3) Cell cycle distribution was assayed according to Nusse et al. with a Becton Dickinson fluorescence-activated cell sorter and analyzed by a Cell Cycle Multi-cycle system (Phoenix Flow System, San Diego, Calif., USA).

[4] = tested on: Rb (retinoblastoma) positive cells; test: cell cycle effect in Rb positive cells; assay type: cell-based
Procedure: as §3

| Compound | inhibition of breast cancer cell with wild type Rb [1] | inhibition of small cell lung cancer cell line with defective Rb function [2] | potency compared with 17-AGG in small cell lung cancer cell line with defective Rb function [2] | efficacy in side by side experiment with radicicol (growth of MCF7 cells, FIG. 19) [3] | further results |
| --- | --- | --- | --- | --- | --- |
| C[C@@H]1C[C@H]2C[C@@H]2/C=C\C=C\C(=O)Cc2c(Cl)c(O)cc(O)c2C(=O)O1 [cyclopropyl radicicol, Cycloproparadicicol] | potent inhibitors | potent inhibitors | much more potent than 17-AGG | – | effectiveness in reducing HER2 compared with radicicol (HER2): at least as effective, if not better than radicicol |
| radicicol oxime [VII] | – | – | – | demonstrated efficacy | – |
| C[C@H]1C/C=C/[C@@H](O)[C@@H](O)CC/C=C/c2cc(O)cc(O)c2C(=O)O1 [Aigialomycin D] | – | – | – | – | binding to HSP90 (HSP90): does bind to HSP90 (though significantly less so than radicicol (2)); antimalarial activity IC50 (P. falciparum): 6.6 mg/L; antitumor activity IC50 (KB cells): 3.0 mg/L |
| C[C@@H]1C[C@H]2O[C@@H]2/C=C\C=C\C(=O)Cc2c(Cl)c(O)cc(O)c2C(=O)O1 [Radicicol] | potent inhibitors | potent inhibitors | much more potent than 17-AGG | demonstrated efficacy | cell cycle block in Rb negative cells (Rb negative cells): blocked in the M (mitosis) phase; cell cycle block in Rb positive cells [4]: clear G1 (growth) phase block |
| C=CCNC1=C2C[C@@H](C)C[C@H](OC)[C@H](O)[C@@H](C)/C=C(\C)[C@H](OC(N)=O)[C@@H](OC)/C=C\C=C(/C)C(=O)NC(=CC1=O)C2=O [17-AGG, 17-allylaminogeldanamycin] | – | – | – | – | potency in cells with wild type Rb versus cells with defective Rb function ([2]; wild type Rb vs defective Rb): much more potent against cells with wild type Rb than in cells with defective Rb function |
